# From patent US20260092179A1, “GENETICALLY MODIFIED HOST CELLS PRODUCING VIOLACEIN, ANALOGUES, AND DERIVATIVES THEREOF” (OCTARINE BIO APS, priority 2022, published 2026)
# How the values were obtained:
# [1] = Temperature stability of dyed fabrics (colour fastness, ΔE); format: physicochemical; conditions: oven 80° c. for 4 h; for ΔE: before and after the stability test
# Method: (§1) In order to assess the stability and colour fastness of violacein and violacein derivatives dyed onto fabrics, dyed fabrics were subjected to a number of conditions. Fabrics were dyed according to Example 18 and colour coordinates and colour change before and after exposure to a given condition were determined as described in Example 18. To measure temperature stability, fabrics were incubated in an oven set to 80° c. for 4 h. To measure stability under acid and alkaline conditions, fabrics were fully submerged in water solutions set to pH 8 with NaOH and pH 5 with HCl and incubated at room temperature for 30 minutes. Fabrics were then incubated at 37° c. for 4 h. To measure stability during laundering, fabrics were washed at 30° c. under the “mix” setting of a Siemens IQ300 washing machine, then dried in a Siemens IQ300 dryer until dry. To measure artificial light stability, fabrics were placed under an LED lamp at room temperature for 16 h. To measure UV light stability, fabrics were placed under a UV lamp at room temperature for 1 h.
# [2] = Acidic pH stability of dyed fabrics (colour fastness, ΔE); format: physicochemical; conditions: pH 5 with HCl
# Method: as §1
# [3] = Alkaline pH stability of dyed fabrics (colour fastness, ΔE); format: physicochemical; conditions: pH 8 with NaOH
# Method: as §1
# E. coli DH5a = assay: Antimicrobial activity of dyed Nylon 6,6 fabric: final OD600 and % inhibition; format: cell-based
# Method: (§2) Violacein is reported as being a potent antibiotic, capable of inhibiting the growth of a wide range of microbial kingdoms including bacteria, yeast, fungi, viruses, protozoa and nematode. […] To test this, overnight cultures of wild-type E. coli DH5a and S. cerevisiae S228c strains were diluted in 5 mL of cultivation media (LB for E. coli, minimal media for S. cerevisiae) to a starting OD600 of 0.1. 1.5×1.5 cm dyed Nylon 6,6 fabric strips were sterilized by submerging in 75% ethanol for 15 mins and air drying in a laminar air flow hood before adding to each culture (with undyed Nylon 6,6 fabric as a negative control). […] This experiment provides evidence that all violacein derivatives display antimicrobial properties.
# S. cerevisiae S228c = assay: as above; format: cell-based
# Method: as §2
# [4] = Acrylic, before and after the stability test
# [5] = Bleached cotton, before and after the stability test
# [6] = Diacetate, before and after the stability test
# [7] = Nylon 6,6, before and after the stability test
# [8] = Polyester, before and after the stability test
# [9] = Wool, before and after the stability test
smiles,measurement,setting,value
O=C1NC(c2c[nH]c3ccc(O)cc23)=C/C1=C1\C(=O)Nc2ccccc21 [violacein],L,"[1]; Acrylic, After test",62.99
same,a,"[1]; Acrylic, After test",2.58
same,b,"[1]; Acrylic, After test",−1.01
same,L,"[1]; Acrylic, Before test",64.83
same,a,"[1]; Acrylic, Before test",1.28
same,b,"[1]; Acrylic, Before test",1.7
same,ΔE,[1]; Acrylic,3.52
same,L,"[1]; Bleached cotton, After test",59.33
same,a,"[1]; Bleached cotton, After test",3.72
same,b,"[1]; Bleached cotton, After test",−8.18
same,L,"[1]; Bleached cotton, Before test",60.51
same,a,"[1]; Bleached cotton, Before test",2.66
same,b,"[1]; Bleached cotton, Before test",−6.54
same,ΔE,[1]; Bleached cotton,2.28
same,L,"[1]; Diacetate, After test",41.38
same,a,"[1]; Diacetate, After test",10.6
same,b,"[1]; Diacetate, After test",−12.61
same,L,"[1]; Diacetate, Before test",43.1
same,a,"[1]; Diacetate, Before test",8.4
same,b,"[1]; Diacetate, Before test",−12.5
same,ΔE,[1]; Diacetate,2.79
same,L,"[1]; Nylon 6,6, After test",33.74
same,a,"[1]; Nylon 6,6, After test",5.53
same,b,"[1]; Nylon 6,6, After test",−19.85
same,L,"[1]; Nylon 6,6, Before test",34.91
same,a,"[1]; Nylon 6,6, Before test",5
same,b,"[1]; Nylon 6,6, Before test",−20.42
same,ΔE,"[1]; Nylon 6,6",1.41
same,L,"[1]; Polyester, After test",67.81
same,a,"[1]; Polyester, After test",4.37
same,b,"[1]; Polyester, After test",−3.55
same,L,"[1]; Polyester, Before test",68.98
same,a,"[1]; Polyester, Before test",3.25
same,b,"[1]; Polyester, Before test",−1.56
same,ΔE,[1]; Polyester,2.57
same,L,"[1]; Wool, After test",67.34
same,a,"[1]; Wool, After test",1.87
same,b,"[1]; Wool, After test",−0.17
same,L,"[1]; Wool, Before test",67
same,a,"[1]; Wool, Before test",1.5
same,b,"[1]; Wool, Before test",0.36
same,ΔE,[1]; Wool,0.73
same,L,"[2]; Acrylic, After test",66.03
same,a,"[2]; Acrylic, After test",2.78
same,b,"[2]; Acrylic, After test",0.02
same,L,"[2]; Acrylic, Before test",65.53
same,a,"[2]; Acrylic, Before test",2.41
same,b,"[2]; Acrylic, Before test",0.93
same,ΔE,[2]; [4],1.10
same,L,"[2]; Bleached cotton, After test",59.6
same,a,"[2]; Bleached cotton, After test",2.72
same,b,"[2]; Bleached cotton, After test",−7.71
same,L,"[2]; Bleached cotton, Before test",59.65
same,a,"[2]; Bleached cotton, Before test",3.71
same,b,"[2]; Bleached cotton, Before test",−6.68
same,ΔE,[2]; [5],1.43
same,L,"[2]; Diacetate, After test",45.59
same,a,"[2]; Diacetate, After test",9.13
same,b,"[2]; Diacetate, After test",−11.74
same,L,"[2]; Diacetate, Before test",45.97
same,a,"[2]; Diacetate, Before test",8.41
same,b,"[2]; Diacetate, Before test",−13
same,ΔE,[2]; [6],1.50
same,L,"[2]; Nylon 6,6, After test",34.94
same,a,"[2]; Nylon 6,6, After test",5.43
same,b,"[2]; Nylon 6,6, After test",−20.31
same,L,"[2]; Nylon 6,6, Before test",34.82
same,a,"[2]; Nylon 6,6, Before test",5.47
same,b,"[2]; Nylon 6,6, Before test",−20.22
same,ΔE,[2]; [7],0.16
same,L,"[2]; Polyester, After test",68.04
same,a,"[2]; Polyester, After test",1.96
same,b,"[2]; Polyester, After test",−1.34
same,L,"[2]; Polyester, Before test",66.71
same,a,"[2]; Polyester, Before test",3.52
same,b,"[2]; Polyester, Before test",−2.04
same,ΔE,[2]; [8],2.17
same,L,"[2]; Wool, After test",69.34
same,a,"[2]; Wool, After test",1.2
same,b,"[2]; Wool, After test",0.61
same,L,"[2]; Wool, Before test",69.04
same,a,"[2]; Wool, Before test",0.77
same,b,"[2]; Wool, Before test",1.2
same,ΔE,[2]; [9],0.79
same,L,"[3]; Acrylic, After test",63.85
same,a,"[3]; Acrylic, After test",2.52
same,b,"[3]; Acrylic, After test",0.06
same,L,"[3]; Acrylic, Before test",65.79
same,a,"[3]; Acrylic, Before test",3.11
same,b,"[3]; Acrylic, Before test",0.28
same,ΔE,[3]; [4],2.04
same,L,"[3]; Bleached cotton, After test",60.76
same,a,"[3]; Bleached cotton, After test",3.22
same,b,"[3]; Bleached cotton, After test",−7.53
same,L,"[3]; Bleached cotton, Before test",59.94
same,a,"[3]; Bleached cotton, Before test",2.69
same,b,"[3]; Bleached cotton, Before test",−8.23
same,ΔE,[3]; [5],1.20
same,L,"[3]; Diacetate, After test",44.97
same,a,"[3]; Diacetate, After test",7.85
same,b,"[3]; Diacetate, After test",−11.19
same,L,"[3]; Diacetate, Before test",43.93
same,a,"[3]; Diacetate, Before test",8.84
same,b,"[3]; Diacetate, Before test",−14.67
same,ΔE,[3]; [6],3.76
same,L,"[3]; Nylon 6,6, After test",33.91
same,a,"[3]; Nylon 6,6, After test",5.25
same,b,"[3]; Nylon 6,6, After test",−19.35
same,L,"[3]; Nylon 6,6, Before test",34.13
same,a,"[3]; Nylon 6,6, Before test",6.3
same,b,"[3]; Nylon 6,6, Before test",−20.23
same,ΔE,[3]; [7],1.39
same,L,"[3]; Polyester, After test",68.28
same,a,"[3]; Polyester, After test",1.01
same,b,"[3]; Polyester, After test",−0.5
same,L,"[3]; Polyester, Before test",66.44
same,a,"[3]; Polyester, Before test",4.15
same,b,"[3]; Polyester, Before test",−2.11
same,ΔE,[3]; [8],3.98
same,L,"[3]; Wool, After test",66.99
same,a,"[3]; Wool, After test",−0.18
same,b,"[3]; Wool, After test",1.19
same,L,"[3]; Wool, Before test",67.52
same,a,"[3]; Wool, Before test",0.35
same,b,"[3]; Wool, Before test",1.01
same,ΔE,[3]; [9],0.77
same,Final OD600,"E. coli DH5a; E. coli cultured overnight at 30° c. with dyed Nylon 6,6 fabric strip, starting OD600 0.1",4.16
same,% Inhibition,"E. coli DH5a; E. coli, dyed Nylon 6,6 fabric vs undyed fabric control",20.24%
same,growth inhibition of E. coli,"E. coli DH5a; dyed Nylon 6,6 fabric strip in culture, overnight 30° c., OD600 versus undyed fabric",most inhibited
same,Final OD600,"S. cerevisiae S228c; S. cerevisiae cultured overnight at 30° c. with dyed Nylon 6,6 fabric strip, starting OD600 0.1",4.64
same,% Inhibition,"S. cerevisiae S228c; S. cerevisiae, dyed Nylon 6,6 fabric vs undyed fabric control",13.43%
